Converted amounts (≈) assume the structure as drawn.
What was measured:
P. morganii I + 001 = assay: MIC by agar-dilution (Diagnostic Sensitivity Test), inoculum 10^4 CFU/spot; type: cell-based; details: Morganella morganii, read-out: minimum inhibitory concentration (MIC)
Source text: (§1) The pharmaceutically acceptable carbapenem compounds of the present invention are useful antibacterial agents having a broad spectrum of activity in vitro against standard laboratory microorganisms, both Gram-negative and Gram-positive, which are used to screen for activity against pathogenic bacteria. The antibacterial spectrum and potency of a particular compound may be determined in a standard test system. In particular the carbapenems of the present invention show good stability to beta-lactamases and have a particularly good elimination half life in mammals. In general compounds show significant improvement over imipenem.
(§2) The following results were obtained for representative compounds on a standard in vitro test system using Diagnostic Sensitivity Test. The antibacterial activity is described in terms of the minimum inhibitory concentration (MIC) determined by the agar-dilution technique with an inoculum size of 10^4 CFU/spot.

S. aureus Oxford = assay: as above; type: cell-based; details: Staphylococcus aureus, read-out: minimum inhibitory concentration (MIC)
Source text: as §1, §2

E. coli DCO = assay: as above; type: cell-based; details: Escherichia coli, read-out: minimum inhibitory concentration (MIC)
Source text: as §1, §2

[1] = system: Enterobacter cloacae P99-; assay: as above; type: cell-based; details: P99, read-out: minimum inhibitory concentration (MIC)
Source text: as §1, §2

B. fragilis AMP S = assay: as above; type: cell-based; details: Bacteroides fragilis, read-out: minimum inhibitory concentration (MIC)
Source text: as §1, §2

[2] = system: Gram positive and negative, aerobic and anaerobic bacteria; details: imipenem, background; cited from earlier work

Structure (SMILES) | MIC (P. morganii I + 001) [µg/mL] | MIC (S. aureus Oxford) [µg/mL] | MIC (E. coli DCO) [µg/mL] | MIC [1] [ng/mL] | MIC (B. fragilis AMP S) [µg/mL] | spectrum of antibacterial activity [2]
C[C@@H](O)[C@H]1C(=O)N2C(C(=O)O)=C(S[C@@H]3CN[C@H](C(=O)Nc4cccc(S(=O)(=O)O)c4)C3)[C@H](C)[C@H]12 [EXAMPLE 1, (1R,5S,6S,8R,2'S,4'S)-2-(2-(3-Sulfophenylcarbamoyl)pyrrolidin-4-ylthio)-6-(1-hydroxyethyl)-1-methylcarbapenem-3-carboxylic acid] | 0.015 (≈ 0.0293 µM) | 0.125 (≈ 0.244 µM) | 0.015 (≈ 0.0293 µM) | 8 (≈ 0.0156 µM) | 0.25 (≈ 0.489 µM) | 
C[C@@H](O)[C@H]1C(=O)N2C(C(=O)O)=C(SCCN=CN)C[C@H]12 [imipenem, N-formimidoyl thienamycin] |  |  |  |  |  | broad spectrum of antibacterial activity

Reference: patent US5571805A, “Antibiotic compounds” (Zeneca Limited, priority 1992, dated 1996)
